Measured values taken from patent EP4703358A1, “BENZO SIX-MEMBERED HETEROCYCLIC GSPT1 PROTEIN DEGRADATION AGENT AND USE THEREOF” (China Pharmaceutical University, priority 2023, dated 2024).

Key:
GSPT1 protein = target: T1, GSPT1 protein (Homo sapiens, UniProt P15170+Q96SW2); assay: Degradation of GSPT1 in KG-1 cells (Western blot); format: cell-based; conditions: KG-1 cells, compound concentration 200 nM, 4 hours
T1 construct: host or cells: KG-1 cells
Procedure: KG-1 cells (ATCC) were grown in an IMDM culture medium (containing 20% FBS). After centrifugation and counting, the cell concentration was adjusted. The cells were plated onto 6-well plates at 10^6 cells/well, with 1350 µL per well. 150 µL of DMSO and the test compounds of the present disclosure (compound concentration: 200 nM) were added. The plates were incubated in an incubator at 37 °C with 5% CO2 for 4 hours. The cells were centrifuged, and the culture medium was discarded. PBS was added to wash the cells and then discarded. Whole cell lysates were prepared using a protease inhibitor cocktail (100×, Fude Biological), a protein phosphatase inhibitor cocktail (100×, Fude Biological), SuperNuclease (Beyotime), and a high-intensity RIPA lysis buffer (Thermo Fisher) and placed on ice for 30 minutes. After centrifugation, the cell debris precipitates were discarded, and the whole cell lysate supernatants were collected and transferred to new centrifuge tubes. After a BCA protein assay, samples were prepared using a 5× loading buffer (Thermo Fisher). The samples were subjected to protein electrophoresis separation in a 4-20% precast gel (SDS-PAGE gel), transferred to a PVDF membrane, then blocked with 5% NFDM/TBST at room temperature for 1 hour, incubated overnight with primary antibodies at 4 °C, and incubated with a secondary antibody at room temperature for 2 hours the next day. Signals were detected using a MINICHEMITM imaging system.
Primary antibodies: • Anti-GSPT1: Abcam ab234433 • Anti-beta actin: Fude Biological FD0060
Secondary antibody: Anti-rabbit peroxidase-linked secondary antibody: Fude Biological FDG007
The degradation effects of the compounds on GSPT1 protein are shown in Table 1, where A represents a GSPT1 protein degradation percentage of no less than 80%, B represents a degradation percentage of less than 80% but no less than 50%, C represents a degradation percentage of less than 50% but no less than 25%, and D represents a degradation percentage of less than 25%. Table 1. The degradation of GSPT1 protein by compounds

KG-1 cells = assay: Antiproliferative activity against KG-1 cells (CCK8); format: cell-based; conditions: Homo sapiens, 72 hours
Procedure: KG-1 cells in the logarithmic growth phase were diluted in a culture medium (RPMI + 10% FBS) and plated onto 96-well plates at 5000 cells/well, and the plates were incubated in an incubator at 37 °C with 5% CO2 for 24 hours. 10 mM stock solutions of the test compounds of the present disclosure in DMSO were prepared and diluted with the culture medium to set 9 concentration gradients. Three replicate wells were set for each concentration. After compound addition, the plates were incubated in an incubator at 37 °C with 5% CO2 for 72 hours. The cell proliferation was assessed using the CCK8 method. The cell growth inhibition IC50 values of the compounds were determined using an enzyme labeling method. The IC50 values were calculated using GraphPad Prism 7 software.
The antiproliferative activity of the compounds against KG-1 cells is shown in Table 2, where A represents IC50 < 1 nM, B represents 1 ≤ IC50 < 10 nM, C represents 10 nM ≤ IC50 < 100 nM, D represents 100 nM ≤ IC50 < 1000 nM, and E represents IC50 ≥ 1000 nM. Table 2. The antiproliferative activity of compounds against KG-1 cells

U937 = assay: Antiproliferative activity against tumor cells (CCK8), U937; format: cell-based; conditions: Homo sapiens, U-937, 72 hours
Procedure: (§1) U937, MOLM-13, and MV4-11 cells (ATCC) in the logarithmic growth phase were separately diluted in a culture medium and plated onto 96-well plates at 5000 cells/well, and the plates were incubated in an incubator at 37 °C with 5% CO2 for 24 hours. 10 mM stock solutions of the compounds in DMSO were prepared and diluted with the culture medium to set 9 concentration gradients. Three replicate wells were set for each concentration. After compound addition, the plates were incubated in an incubator at 37 °C with 5% CO2 for 72 hours. The cell proliferation was assessed using the CCK8 method. The cell growth inhibition IC50 values of the compounds were determined using an enzyme labeling method. The IC50 values were calculated using GraphPad Prism 7 software.
(§2) The antiproliferative activity of the compounds against the tumor cells is shown in Table 3, where A represents IC50 < 1 nM, B represents 1 ≤ IC50 < 10 nM, C represents 10 nM ≤ IC50 < 100 nM, D represents 100 nM ≤ IC50 < 1000 nM, and E represents IC50 ≥ 1000 nM. Table 3. The antiproliferative activity of compounds against tumor cells

MOLM-13 = assay: Antiproliferative activity against tumor cells (CCK8), MOLM-13; format: cell-based; conditions: Homo sapiens, MOLM-13 cells, 72 hours
Procedure: as §1, §2

MV4-11 = assay: Antiproliferative activity against tumor cells (CCK8), MV4-11; format: cell-based; conditions: Homo sapiens, MV4-11 cells, 72 hours
Procedure: as §1, §2

[1] = In vivo pharmacokinetic study in rats; conditions: rat; for AUC(0-inf) / AUC(0-t) / C0 / Vd / clearance / half-life / Cmax / Tmax: male, SD, plasma; for F: PO 10mg/kg
Procedure: Sample collection and preparation: After SPF SD rats (male, 210-230 g, 42-48 days, RILD Liver) in a good growth state were dosed intravenously at 2 mg/kg and orally at 10 mg/kg, blood samples were collected via the orbit at different blood collection time points and transferred to centrifuge tubes containing an anticoagulant; the intravenous blood collection time points were 0.08 hours, 0.25 hours, 0.5 hours, 1 hour, 2 hours, 4 hours, 6 hours, 8 hours, and 24 hours, and the oral blood collection time points were 0.25 hours, 0.5 hours, 1 hour, 2 hours, 4 hours, 6 hours, 8 hours, and 24 hours. The blood samples were immediately centrifuged at 4 °C and 8000 rpm for 10 minutes, and the plasma was collected and stored in an ultra-low-temperature freezer at -80 °C until it was analyzed by LC-MS/MS. Pharmacokinetic data analysis: Pharmacokinetic parameters of the compounds were calculated using pharmacokinetic software in a non-compartmental model. The peak plasma concentration (Cmax) and the time to reach the peak plasma concentration (Tmax) were taken as observation values. Parameters such as the half-life T1/2, the areas under the plasma concentration-time curve AUClast and AUCinf, the apparent volume of distribution Vss, and the clearance rate CL were determined through regression analysis of the linear terminal portion of the logarithmic plasma concentration-time curve and the linear trapezoidal rule.

[2] = Metabolic stability in in vitro rat liver microsomes; conditions: for half-life / microsomal CLint: rat
Procedure: 10 mM stock solutions of the test compounds in DMSO were prepared, diluted with acetonitrile and then with PBS, and vortexed, with the DMSO content controlled at 0.1%. The dilute working solutions (10 µL) were incubated with 65 µL of a liver microsome system (30 µL of 100 mM PBS, 25 µL of 20 mM MgCl2, and 10 µL of 5 mg/mL RLMs) and preheated at 37 °C for 5 min. 25 µL of 4 mM NADPH was added to start a reaction. Samples were taken at different time points (0 min, 5 min, 15 min, 30 min, 60 min, and 120 min), and an acetonitrile solution containing an internal standard was added to stop the reaction. After vortexing and centrifugation, the supernatants were collected and analyzed by LC-MS/MS, and the half-lives and clearance rates were calculated.

[3] = system: human leukemia cells MV411; assay: In vivo pharmacodynamic study in MV411 acute myeloid leukemia xenograft mouse model; design: species or system BABL/c Nude mouse
Procedure: The human leukemia cells MV411 (Cell Bank, Chinese Academy of Sciences) used in this experiment were cultured in an IMDM culture medium supplemented with 10% FBS in an incubator containing CO2 at 37 °C. Before the cells were continuously sub-cultured to the tenth generation, MV411 cells in the logarithmic growth phase were used, and the cell concentration was adjusted to 1 × 10^8 cells/mL with a serum-free culture medium. Each BABL/c Nude mouse (Jiangsu GemPharmatech Co., Ltd., female, 4-6 weeks old, 14-16 g) was inoculated with 100 µL of the cell suspension by subcutaneous injection on the right dorsal side (near the axilla) under sterile conditions. When the mean tumor volume of the tumor-bearing mice reached approximately 100 mm^3, the mice were randomly divided into groups, with the tumor volume in each group being roughly the same. The day of grouping and administration was defined as day 0. The animals in each treatment group were given a compound once daily by oral gavage at 15 mg/kg, 30 mg/kg, or 60 mg/kg. The body weight and tumor volume of the animals were measured every other day.
Experimental indicator: The anti-tumor efficacy of the compounds was evaluated using the relative tumor growth inhibition rate (TGI). Tumor weight TGI (%) = {1 - [(final average tumor weight of experimental group)/(final average tumor weight of control group of tumor-bearing mice without administration)]} × 100%. Tumor volume TGI (%) = [1 - relative tumor volume of experimental group/relative tumor volume of control group of tumor-bearing mice without administration] × 100%.

T1 sequence (P15170 whole entry): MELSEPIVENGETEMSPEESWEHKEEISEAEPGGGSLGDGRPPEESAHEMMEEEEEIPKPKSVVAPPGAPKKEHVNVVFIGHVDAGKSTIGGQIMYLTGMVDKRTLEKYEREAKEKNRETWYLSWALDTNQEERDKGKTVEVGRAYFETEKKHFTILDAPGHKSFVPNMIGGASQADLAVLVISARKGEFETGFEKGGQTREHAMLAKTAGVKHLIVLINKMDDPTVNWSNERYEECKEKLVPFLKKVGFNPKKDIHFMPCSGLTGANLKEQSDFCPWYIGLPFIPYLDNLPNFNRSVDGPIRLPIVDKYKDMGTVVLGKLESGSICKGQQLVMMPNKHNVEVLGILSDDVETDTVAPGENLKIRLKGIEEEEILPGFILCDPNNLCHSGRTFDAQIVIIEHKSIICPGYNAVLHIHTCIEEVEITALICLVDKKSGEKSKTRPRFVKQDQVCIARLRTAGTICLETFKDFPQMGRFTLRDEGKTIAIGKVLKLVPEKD
T1 sequence (Q96SW2 whole entry): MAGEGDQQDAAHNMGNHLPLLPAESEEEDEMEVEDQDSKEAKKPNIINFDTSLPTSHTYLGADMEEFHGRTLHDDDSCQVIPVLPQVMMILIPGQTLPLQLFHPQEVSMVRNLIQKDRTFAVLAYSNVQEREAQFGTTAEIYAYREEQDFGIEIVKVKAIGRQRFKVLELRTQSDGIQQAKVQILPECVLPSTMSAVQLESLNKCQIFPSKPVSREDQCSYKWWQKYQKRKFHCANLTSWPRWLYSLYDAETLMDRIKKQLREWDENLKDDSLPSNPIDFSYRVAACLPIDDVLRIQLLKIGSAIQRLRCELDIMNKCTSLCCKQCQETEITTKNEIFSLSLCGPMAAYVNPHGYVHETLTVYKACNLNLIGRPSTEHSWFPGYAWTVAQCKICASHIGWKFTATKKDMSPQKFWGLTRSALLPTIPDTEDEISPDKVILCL
T1 sequence (Q16531 whole entry partner): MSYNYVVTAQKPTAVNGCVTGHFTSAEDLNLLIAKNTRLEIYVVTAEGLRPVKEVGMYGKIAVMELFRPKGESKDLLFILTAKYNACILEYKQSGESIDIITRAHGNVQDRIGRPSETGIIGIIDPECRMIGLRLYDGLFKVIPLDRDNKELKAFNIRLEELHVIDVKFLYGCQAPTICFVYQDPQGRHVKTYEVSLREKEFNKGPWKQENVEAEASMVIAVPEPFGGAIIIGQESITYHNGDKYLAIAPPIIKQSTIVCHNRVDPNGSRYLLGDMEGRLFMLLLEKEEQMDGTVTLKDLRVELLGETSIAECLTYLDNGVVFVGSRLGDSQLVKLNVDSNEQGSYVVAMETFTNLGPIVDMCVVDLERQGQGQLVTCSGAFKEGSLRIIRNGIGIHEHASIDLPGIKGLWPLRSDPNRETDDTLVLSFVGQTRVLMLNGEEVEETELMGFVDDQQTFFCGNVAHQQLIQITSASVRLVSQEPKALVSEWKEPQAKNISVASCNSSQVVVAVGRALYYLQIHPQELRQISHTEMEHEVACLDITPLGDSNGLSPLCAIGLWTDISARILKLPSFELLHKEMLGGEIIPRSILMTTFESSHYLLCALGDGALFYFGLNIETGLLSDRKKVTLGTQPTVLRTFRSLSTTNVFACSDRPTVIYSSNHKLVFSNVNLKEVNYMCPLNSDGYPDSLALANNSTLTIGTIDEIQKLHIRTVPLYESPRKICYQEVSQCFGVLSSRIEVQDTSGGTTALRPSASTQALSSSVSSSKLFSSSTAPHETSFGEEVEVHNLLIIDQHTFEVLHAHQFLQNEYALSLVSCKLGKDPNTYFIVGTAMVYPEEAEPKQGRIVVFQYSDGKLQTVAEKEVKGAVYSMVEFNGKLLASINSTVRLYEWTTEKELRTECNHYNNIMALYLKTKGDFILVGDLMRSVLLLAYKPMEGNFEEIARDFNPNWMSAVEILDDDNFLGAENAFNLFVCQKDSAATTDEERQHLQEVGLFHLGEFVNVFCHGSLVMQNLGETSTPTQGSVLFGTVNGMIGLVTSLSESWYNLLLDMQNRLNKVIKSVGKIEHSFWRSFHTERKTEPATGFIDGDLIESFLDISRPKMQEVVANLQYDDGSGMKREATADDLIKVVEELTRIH

Structure (SMILES)	percent GSPT1 degradation at 0.2 µM (GSPT1 protein)	IC50 (U937)	IC50 (MOLM-13)	IC50 (MV4-11)	half-life [2]	microsomal CLint [2]	IC50 (KG-1 cells)	other results
O=C1CCC(N2Cc3cc(CNC(=O)C4COc5ccc(OC(F)(F)F)cc5C4)ccc3C2=O)C(=O)N1 (stereo not drawn) [Compound B-4, N-((2-(2,6-Dioxopiperidin-3-yl)-1-oxoisoindolin-5-yl)methyl)-6-(trifluoromethoxy)chromane-3-carboxamide]	> 80%	1 to 10 nM	1 to 10 nM	< 1 nM			< 1 nM	
O=C1CCC(N2Cc3cc(CNC(=O)C4CNc5ccccc5C4)ccc3C2=O)C(=O)N1 (stereo not drawn) [Compound C-1, N-((2-(2,6-Dioxopiperidin-3-yl)-1-oxoisoindolin-5-yl)methyl)-1,2,3,4-tetrahydroquinoline-3-carboxamide]	> 80%	10 to 100 nM	10 to 100 nM	10 to 100 nM			1 to 10 nM	
O=C1CCC(N2Cc3cc(CNC(=O)C4CCc5ccccc5C4)ccc3C2=O)C(=O)N1 [Compound D-1, N-((2-(2,6-Dioxopiperidin-3-yl)-1-oxoisoindolin-5-yl)methyl)-1,2,3,4-tetrahydronaphthalene-2-carboxamide]	< 25%	≥ 1000 nM	≥ 1000 nM	≥ 1000 nM			≥ 1000 nM	

The next lines start with results.

percent GSPT1 degradation at 0.2 µM (GSPT1 protein)	IC50 (U937)	IC50 (MOLM-13)	IC50 (MV4-11)	half-life [2]	microsomal CLint [2]	Structure (SMILES)	IC50 (KG-1 cells)	other results
> 80%	1 to 10 nM	10 to 100 nM	10 to 100 nM	6.17 h	3.75 µL/min/mg	O=C1CCC(N2Cc3cc(CNC(=O)C4=Cc5ccccc5OC4)ccc3C2=O)C(=O)N1 (stereo not drawn) [Compound A-1, N-((2-(2,6-Dioxopiperidin-3-yl)-1-oxoisoindolin-5-yl)methyl)-2H-chromene-3-carboxamide]	10 to 100 nM	AUC(0-inf) ([1]; iv, 2 mg/kg): 1920 ± 267 ng·h/mL; AUC(0-t) ([1]; iv, 2 mg/kg): 1900 ± 270 ng·h/mL; C0 ([1]; iv, 2 mg/kg): 3840 ± 226 ng/mL; Vd ([1]; iv, 2 mg/kg): 0.92 ± 0.07 L/kg; clearance ([1]; iv, 2 mg/kg): 17.6 ± 2.6 mL/min/kg; half-life ([1]; iv, 2 mg/kg): 1.38 ± 0.14 h; AUC(0-inf) ([1]; po, 10 mg/kg): 1850 ± 330 ng·h/mL; AUC(0-t) ([1]; po, 10 mg/kg): 1810 ± 343 ng·h/mL; Cmax ([1]; po, 10 mg/kg): 619 ± 42 ng/mL; Tmax ([1]; po, 10 mg/kg): 0.75 ± 0.43 h; half-life ([1]; po, 10 mg/kg): 2.69 ± 1.13 h; F [1]: 19.3±3.4%
> 80%	10 to 100 nM	10 to 100 nM	10 to 100 nM	4.67 h	4.95 µL/min/mg	O=C1CCC(N2Cc3cc(CNC(=O)C4=Cc5cc(F)ccc5OC4)ccc3C2=O)C(=O)N1 (stereo not drawn) [Compound A-3, N-((2-(2,6-Dioxopiperidin-3-yl)-1-oxoisoindolin-5-yl)methyl)-6-fluoro-2H-chromene-3-carboxamide]	10 to 100 nM	
> 80%				3.11 h	7.43 µL/min/mg	O=C1CCC(N2Cc3c(ccc(CNC(=O)C4=Cc5cc(OC(F)(F)F)ccc5OC4)c3F)C2=O)C(=O)N1 (stereo not drawn) [Compound A-42, N-((2-(2,6-Dioxopiperidin-3-yl)-4-fluoro-1-oxoisoindolin-5-yl)methyl)-6-(trifluoromethoxy)-2H-chromene-3-carboxamide]	1 to 10 nM	tumor volume TGI ([3]; 60 mg/kg once daily by oral gavage): 100%; weight loss in mice ([3]; once daily by oral gavage): no significant weight loss; AUC(0-inf) ([1]; iv, 2 mg/kg): 17300 ± 1470 ng·h/mL; AUC(0-t) ([1]; iv, 2 mg/kg): 17200 ± 1500 ng·h/mL; C0 ([1]; iv, 2 mg/kg): 32100 ± 1550 ng/mL; Vd ([1]; iv, 2 mg/kg): 0.14 L/kg; clearance ([1]; iv, 2 mg/kg): 1.9 ± 0.1 mL/min/kg; half-life ([1]; iv, 2 mg/kg): 1.37 ± 0.04 h; AUC(0-inf) ([1]; po, 10 mg/kg): 7190 ng·h/mL; AUC(0-t) ([1]; po, 10 mg/kg): 8380 ± 1280 ng·h/mL; Cmax ([1]; po, 10 mg/kg): 2810 ± 1530 ng/mL; Tmax ([1]; po, 10 mg/kg): 0.66 ± 0.28 h; half-life ([1]; po, 10 mg/kg): 1.71 h; F [1]: 9.8±1.5%; exposure level relative to CC-90009 ([1]; administered orally): four times; plasma drug exposure level relative to CC-90009 ([1]; intravenous injection): fourteen times; in vitro rat liver microsome metabolic half-life relative to CC-90009 ([2]; ratio to the clinical drug CC-90009): more than 2 times
> 80%	1 to 10 nM	1 to 10 nM	1 to 10 nM	0.735 h	31.4 µL/min/mg	O=C1CCC(N2Cc3cc(CNC(=O)C4COc5ccccc5C4)ccc3C2=O)C(=O)N1 (stereo not drawn) [Compound B-1, N-((2-(2,6-Dioxopiperidin-3-yl)-1-oxoisoindolin-5-yl)methyl)chromane-3-carboxamide]	10 to 100 nM	
